{
  "source": "patent US20250360118A1",
  "about": "“TREATMENT OF FIBROTIC DISORDERS WITH METABOTROPIC GLUTAMATE RECEPTOR 5 ANTAGONISTS OR/AND CANNABINOID RECEPTOR 1 ANTAGONISTS” (THE UNITED STATES OF AMERICA,AS REPRESENTED BY THE …, priority 2022, published 2025)",
  "assay_type_in_all_cases": "in vivo, mice",
  "key": {"[1]": {"test_system": "bleomycin-induced PF mouse model", "experiment": "Survival in bleomycin-induced pulmonary fibrosis mouse model", "experimental": "(§1) The compounds were administered by oral gavage once daily as indicated. The vehicle was a 1:1:18 ratio of DMSO:Tween® 80:saline. Oral formulations were applied at 0.3 and 3 mg/mL concentrations to achieve doses of 3 and 30 mg/kg, respectively.\n(§2) All animal procedures were conducted in accordance with the rules and regulations of the Institutional Animal Care and Use Committee of the National Institutes of Alcohol Abuse and Alcoholism (NIAAA), under the protocols of LPS-GK1. Thirteen-week-old male C57BL/6J mice were obtained from The Jackson Laboratory (Bar Harbor, Maine, USA). Grm5^−/− (mGluR5 KO) mice (JAX 003121) were purchased from The Jackson Laboratory. […] (CB1R KO) mice were generated as described in Zimmer et al., Proc. Natl. Acad. Sci. USA, 96:5780-5785 (1999). Cnr1^−/− and Grm5^−/− mice were on a C57BL/6J genetic background. Both Grm5^−/− and Cnr1^−/− mice colonies were maintained with heterozygous breeding. Mice were housed individually under a 12-hour light/dark cycle and fed a standard diet, ad libitum (Teklad NIH-31; Envigo, Huntingdon, UK).\nA bleomycin-induced pulmonary fibrosis model by delivery of bleomycin via oropharyngeal aspiration was generated as described in Park et al., Am. J. Respir. Cell Mol. Biol., 62(2):178-190 (2020). Briefly, bleomycin was delivered to mice anesthetized with ketamine/xylazine through the oropharynx at 1 U/kg dose using a sterile 100 μL pipette during inspiration at a volume of 100 μL/50 g body weight. Sterile saline was used as vehicle and applied to the control groups. The animals were then allowed to recover from the anesthesia.\nSurvival curves were plotted using GraphPad Prism 9 software. Survival was analyzed by using Log-rank (Mantel-Cox) test for assessing the statistical difference between animal groups."}, "[2]": {"test_system": "bleomycin-induced PF mouse model", "experiment": "Lung function measurements (FlexiVent) in bleomycin-induced PF mouse model", "experimental": "as §1\nas §2, with “Mice were housed individually under a 12-hour light/dark cycle and fed a standard diet, ad libitum (Teklad NIH-31; Envigo, Huntingdon, UK).” left out\nRespiratory system mechanics measurements were performed using the FlexiVent FX system (SCIREQ Inc., Montreal, Canada), which is equipped with an FX1 module and negative pressure forced expiration (NPFE) extension for mice. […] Pressure-volume (PV) curve, airway resistance, tissue damping (G), tissue elastance (H), forced expiratory volume per 0.1 seconds (FEV 0.1), forced vital capacity (FVC), inspiratory capacity (IC), and inhaled air amount (A) parameters were measured. […]"}, "[3]": {"test_system": "bleomycin-induced PF mouse model", "experiment": "Body weight in bleomycin-induced PF mouse model", "details": "basimglurant 3 mg/kg oral, days 8 to 28 after single bleomycin administration, vs vehicle", "experimental": "as §1, §2\nA bleomycin-induced pulmonary fibrosis model by delivery of bleomycin via oropharyngeal aspiration was generated as described in Park et al., Am. J. Respir. Cell Mol. Biol., 62(2):178-190 (2020). […]"}, "[4]": {"test_system": "bleomycin-induced PF mouse model", "experiment": "Lung hydroxyproline (fibrosis marker) in bleomycin-induced PF mouse model", "details": "fenobam 30 mg/kg daily oral for 14 days vs vehicle, bleomycin 1 U/kg", "experimental": "as §1\nas §2, with “UK). […]” for “UK).”\nThe degree of lung fibrosis was quantified biochemically by measuring the hydroxyproline content of lung extracts using liquid chromatography/tandem mass spectrometry (LC-MS/MS) as described in Park et al., Am. […]"}, "[5]": {"details": "basimglurant 3 mg/kg oral, days 8 to 28 after single bleomycin administration, vs vehicle"}},
  "note": "“Also recorded” adds a separate entry of the source.",
  "data": [
    {"smiles": "Cc1nc(C#Cc2ccnc(Cl)c2)c(C)n1-c1ccc(OC(F)(F)F)cc1", "note": "[CTEP, 2-chloro-4-((2,5-dimethyl-1-(4-(trifluoromethoxy)phenyl)-1H-imidazol-4-yl)ethynyl)pyridine]", "values": [
      {"measurement": "survival rate", "setting": "[1]; CTEP 3 mg/kg daily oral for 28 days after single oropharyngeal bleomycin 1 U/kg, vehicle-treated mice 50%", "result": 100, "unit": "%"},
      {"measurement": "survival (in words)", "setting": "[1]; CTEP 3 mg/kg daily oral gavage vs vehicle, bleomycin 1 U/kg", "result": "significantly improved survival; also recorded: prevented mortality"}
    ]},
    {"smiles": "Cc1nc(C#Cc2ccnc(Cl)c2)c(C)n1-c1ccc(F)cc1", "note": "[basimglurant]", "values": [
      {"measurement": "pulmonary tissue stiffness", "setting": "[2]; [5]", "result": "reduced pulmonary tissue stiffness"},
      {"measurement": "body weight loss", "setting": "[3]", "result": "reduced body weight loss"},
      {"measurement": "survival rate (in words)", "setting": "[1]; [5]", "result": "increased survival rate"}
    ]},
    {"smiles": "CN1CC(=O)NC1=NC(=O)Nc1cccc(Cl)c1", "note": "[fenobam]", "values": [
      {"measurement": "decline in pulmonary function parameter: forced expiratory volume (FEV) at 0.1 sec. (air flow)", "setting": "[2]; fenobam 30 mg/kg daily oral for 14 days vs vehicle, bleomycin 1 U/kg", "result": "significantly attenuated"},
      {"measurement": "fibrosis as measured by hydroxyproline level in lungs", "setting": "[4]", "result": "significantly attenuated fibrosis; also recorded: attenuated pulmonary fibrosis"}
    ]}
  ]
}
